Test results: PubChem BioAssay AID1918957 (Molecular Pharmacology Branch, DTP, NCI, 2023)

System: NCI-H1876 complex spheroid viability
Assay: Anticancer human tumor NCI-H1876 cell line growth inhibition [LSD1];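 further: spheroids exposed to compounds for one week before readout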;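 on viability, T/C: 100% = DMSO vehicle-treated spheroids so lower means fewer viable cells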
Settings: for IC50: curve of first compound; for viability, T/C: stronger effect = lower value
Method in brief: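 Drug combinations with the LSD1 inhibitor iadademstat tested on tumor cells co-cultured as spheroids with endothelial cells and mesenchymal stem cells. Concentrations descended in half-log increments from clinical Cmax or 10 microM.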

[1] = second compound 0.1 µM, first compound 0.0316 µM
[2] = second compound 0.1 µM, first compound 0.1 µM
[3] = second compound 0.1 µM, first compound 0.316 µM
[4] = second compound 0.1 µM, first compound 1 µM
[5] = second compound 0.1 µM, first compound 3.16 µM
[6] = second compound 0.1 µM, first compound 10 µM
[7] = second compound 0.316 µM, first compound 0.0316 µM
[8] = second compound 0.316 µM, first compound 0.1 µM
[9] = second compound 0.316 µM, first compound 0.316 µM
[10] = second compound 0.316 µM, first compound 1 µM
[11] = second compound 0.316 µM, first compound 3.16 µM
[12] = second compound 0.316 µM, first compound 10 µM
[13] = second compound 1 µM, first compound 0.0316 µM
[14] = second compound 1 µM, first compound 0.1 µM
[15] = second compound 1 µM, first compound 0.316 µM
[16] = second compound 1 µM, first compound 1 µM
[17] = second compound 1 µM, first compound 3.16 µM
[18] = second compound 1 µM, first compound 10 µM
[19] = second compound 3.16 µM, first compound 0.0316 µM
[20] = second compound 3.16 µM, first compound 0.1 µM
[21] = second compound 3.16 µM, first compound 0.316 µM
[22] = second compound 3.16 µM, first compound 1 µM
[23] = second compound 3.16 µM, first compound 3.16 µM
[24] = second compound 3.16 µM, first compound 10 µM
[25] = second compound 10 µM, first compound 0.0316 µM
[26] = second compound 10 µM, first compound 0.1 µM
[27] = second compound 10 µM, first compound 0.316 µM
[28] = second compound 10 µM, first compound 1 µM
[29] = second compound 10 µM, first compound 3.16 µM
[30] = second compound 10 µM, first compound 10 µM

Row | SMILES | IC50 (second compound 0.1 µM) [nM] | IC50 (second compound 0.316 µM) [nM] | IC50 (second compound 1 µM) [nM] | IC50 (second compound 3.16 µM) [nM] | IC50 (second compound 10 µM) [nM] | viability, T/C [1] [%] | viability, T/C [2] [%] | viability, T/C [3] [%] | viability, T/C [4] [%] | viability, T/C [7] [%] | viability, T/C [8] [%] | viability, T/C [9] [%] | viability, T/C [10] [%] | viability, T/C [13] [%] | viability, T/C [14] [%] | viability, T/C [15] [%] | viability, T/C [16] [%] | viability, T/C [19] [%] | viability, T/C [20] [%] | viability, T/C [21] [%] | also measured
1 | CC(C)c1c(-c2ccccc2)nc2c(C#N)c[nH]n2c1=O + NC1CC1c1ccc(-c2cccc(O)c2)cc1 | 7370 | 7730 | 7780 | 6290 | 4800 | 97.2 | 96.2 | 97.3 | 93.2 | 99.3 | 102 | 102 | 111 | 102 | 101 | 101 | 106 | 101 | 98.2 | 96.6 | viability, T/C [5]: 87.2%; viability, T/C [6]: 36.5%; viability, T/C [11]: 91%; viability, T/C [12]: 38.2%; viability, T/C [17]: 98.5%; viability, T/C [18]: 36.5%; viability, T/C [22]: 96.5%; viability, T/C [23]: 87.3%; viability, T/C [24]: 24.8%; viability, T/C [25]: 84.7%; viability, T/C [26]: 85.7%; viability, T/C [27]: 91.2%; viability, T/C [28]: 88%; viability, T/C [29]: 73.2%; viability, T/C [30]: 9.44%
2 | CC1COCCN1c1cc(-c2ccnn2C)c2ccnc(-c3ccn[nH]3)c2n1 (stereo not given) + NC1CC1c1ccc(-c2cccc(O)c2)cc1 | 3.89 | 3.77 | 4.13 | < 3.16 | < 3.16 | 16.5 | 4.97 | 3.26 | 3.75 | 17.6 | 4.99 | 3.15 | 3.99 | 19.2 | 5.94 | 3.81 | 4.68 | 18.3 | 5.67 | 3.74 | viability, T/C (second compound 0.1 µM, first compound 0.00316 µM): 51.9%; viability, T/C (second compound 0.1 µM, first compound 0.01 µM): 41.5%; viability, T/C (second compound 0.316 µM, first compound 0.00316 µM): 51.6%; viability, T/C (second compound 0.316 µM, first compound 0.01 µM): 41.4%; viability, T/C (second compound 1 µM, first compound 0.00316 µM): 51.9%; viability, T/C (second compound 1 µM, first compound 0.01 µM): 43.7%; viability, T/C (second compound 3.16 µM, first compound 0.00316 µM): 43%; viability, T/C (second compound 3.16 µM, first compound 0.01 µM): 39.5%; viability, T/C [22]: 4.48%; viability, T/C (second compound 10 µM, first compound 0.00316 µM): 37.5%; viability, T/C (second compound 10 µM, first compound 0.01 µM): 31.5%; viability, T/C [25]: 16.8%; viability, T/C [26]: 6.91%; viability, T/C [27]: 4.75%; viability, T/C [28]: 5.76%
3 | COc1ccc([C@@H](O)c2cc(-c3ncnc4cc(N5CCOCC5)ccc34)c(F)cc2Cl)nn1 + NC1CC1c1ccc(-c2cccc(O)c2)cc1 | 1870 | 1890 | 1730 | 1100 | 546 | 89.6 | 91.2 | 87.8 | 67.8 | 92.5 | 93.1 | 86.1 | 71 | 103 | 102 | 88.5 | 67.5 | 93.9 | 91.3 | 79.3 | viability, T/C [5]: 34.7%; viability, T/C [6]: 9.23%; viability, T/C [11]: 33.3%; viability, T/C [12]: 9.61%; viability, T/C [17]: 31.3%; viability, T/C [18]: 9%; viability, T/C [22]: 50%; viability, T/C [23]: 26%; viability, T/C [24]: 6.12%; viability, T/C [25]: 90.3%; viability, T/C [26]: 83.2%; viability, T/C [27]: 58.6%; viability, T/C [28]: 38%; viability, T/C [29]: 17.8%; viability, T/C [30]: 2.16%
